What was measured:
HT-29 [1] = test: Growth inhibition of human HT-29 cells assessed as cell growth at 10 uM incubated for 48 hrs by sulforhodamine B assay relative to control; type: functional; conditions: HT-29, 48 h, read-out: Activity
CCRF-CEM = test: Growth inhibition of human CCRF-CEM cells incubated for 48 hrs by sulforhodamine B assay; type: functional, cell-based
HOP-62 = test: Growth inhibition of human HOP62 cells incubated for 48 hrs by sulforhodamine B assay; type: functional, cell-based; conditions: HOP-62, 48 h
NCI-H23 = test: Growth inhibition of human NCI-H23 cells incubated for 48 hrs by sulforhodamine B assay; type: functional, cell-based; conditions: NCI-H23, 48 h
NCI-H460 = test: Growth inhibition of human NCI-H460 cells incubated for 48 hrs by sulforhodamine B assay; type: functional, cell-based; conditions: NCI-H460, 48 h
SW-620 = test: Growth inhibition of human SW620 cells incubated for 48 hrs by sulforhodamine B assay; type: functional, cell-based; conditions: SW-620, 48 h
M14 = test: Growth inhibition of human M14 cells incubated for 48 hrs by sulforhodamine B assay; type: functional, cell-based; conditions: M14, 48 h
SK-MEL-5 = test: Growth inhibition of human SK-MEL-5 cells incubated for 48 hrs by sulforhodamine B assay; type: functional, cell-based; conditions: SK-MEL-5, 48 h
SF-539 [2] = test: Growth inhibition of human SF539 cells assessed as cell growth at 0.01 uM incubated for 48 hrs by sulforhodamine B assay relative to control; type: functional; conditions: SF-539, 48 h, read-out: Activity
SK-MEL-28 = test: Growth inhibition of human SK-MEL-28 cells assessed as cell growth at 0.01 uM incubated for 48 hrs by sulforhodamine B assay relative to control; type: functional; conditions: SK-MEL-28, 48 h, read-out: Activity
OVCAR-4 [3] = test: Growth inhibition of human OVCAR4 cells assessed as cell growth at 0.01 uM incubated for 48 hrs by sulforhodamine B assay relative to control; type: functional; conditions: OVCAR-4, 48 h, read-out: Activity
NCI-H522 = test: Growth inhibition of human NCI-H522 cells assessed as cell growth at 0.1 uM incubated for 48 hrs by sulforhodamine B assay relative to control; type: functional; conditions: NCI-H522, 48 h, read-out: Activity
COLO 205 = test: Growth inhibition of human COLO205 cells assessed as cell growth at 0.1 uM incubated for 48 hrs by sulforhodamine B assay relative to control; type: functional; conditions: COLO 205, 48 h, read-out: Activity
HT-29 [4] = test: Growth inhibition of human HT-29 cells assessed as cell growth at 0.1 uM incubated for 48 hrs by sulforhodamine B assay relative to control; type: functional; conditions: HT-29, 48 h, read-out: Activity
SF-539 [5] = test: Growth inhibition of human SF539 cells assessed as cell growth at 0.1 uM incubated for 48 hrs by sulforhodamine B assay relative to control; type: functional; conditions: SF-539, 48 h, read-out: Activity
Malme-3M = test: Growth inhibition of human MALME-3M cells assessed as cell growth at 0.1 uM incubated for 48 hrs by sulforhodamine B assay relative to control; type: functional; conditions: read-out: Activity
UACC-257 = test: Growth inhibition of human UACC257 cells assessed as cell growth at 0.1 uM incubated for 48 hrs by sulforhodamine B assay relative to control; type: functional; conditions: UACC-257, 48 h, read-out: Activity
OVCAR-4 [6] = test: Growth inhibition of human OVCAR4 cells assessed as cell growth at 0.1 uM incubated for 48 hrs by sulforhodamine B assay relative to control; type: functional; conditions: OVCAR-4, 48 h, read-out: Activity
OVCAR-5 = test: Growth inhibition of human OVCAR5 cells assessed as cell growth at 0.1 uM incubated for 48 hrs by sulforhodamine B assay relative to control; type: functional; conditions: OVCAR-5, 48 h, read-out: Activity
CAKI-1 = test: Growth inhibition of human Caki1 cells assessed as cell growth at 0.1 uM incubated for 48 hrs by sulforhodamine B assay relative to control; type: functional; conditions: CAKI-1, 48 h, read-out: Activity
PC-3 = test: Growth inhibition of human PC3 cells assessed as cell growth at 0.1 uM incubated for 48 hrs by sulforhodamine B assay relative to control; type: functional; conditions: PC-3, 48 h, read-out: Activity
A549 = test: Growth inhibition of human A549/ATCC cells assessed as cell growth at 1 uM incubated for 48 hrs by sulforhodamine B assay relative to control; type: functional; conditions: A549, 48 h, read-out: Activity
HCC 2998 [7] = test: Growth inhibition of human HCC2998 cells assessed as cell growth at 1 uM incubated for 48 hrs by sulforhodamine B assay relative to control; type: functional; conditions: HCC 2998, 48 h, read-out: Activity
T47D = test: Growth inhibition of human T47D cells assessed as cell growth at 1 uM incubated for 48 hrs by sulforhodamine B assay relative to control; type: functional; conditions: read-out: Activity
NCI-H322M = test: Growth inhibition of human NCI-H322M cells assessed as cell growth at 100 uM incubated for 48 hrs by sulforhodamine B assay relative to control; type: functional; conditions: read-out: Activity
HCC 2998 [8] = test: Growth inhibition of human HCC2998 cells assessed as cell growth at 100 uM incubated for 48 hrs by sulforhodamine B assay relative to control; type: functional; conditions: HCC 2998, 48 h, read-out: Activity
U-251 = test: Growth inhibition of human U251 cells assessed as cell growth at 100 uM incubated for 48 hrs by sulforhodamine B assay relative to control; type: functional; conditions: U-251, 48 h, read-out: Activity
DU-145 = test: Growth inhibition of human DU145 cells assessed as cell growth at 100 uM incubated for 48 hrs by sulforhodamine B assay relative to control; type: functional; conditions: DU-145, 48 h, read-out: Activity
MDA-MB-231 = test: Growth inhibition of human MDA-MB-231 cells assessed as cell growth at 100 uM incubated for 48 hrs by sulforhodamine B assay relative to control; type: functional; conditions: MDA-MB-231, 48 h, read-out: Activity
[9] = read-out: LC50 (the source's name)
[10] = read-out: pLC50 (the source's name) (converted)

## COc1cc(Cl)cc(-c2nn(-c3cccc(NC(=O)c4ccc(N5CCOCC5)c(C(F)(F)F)c4)c3)cc2-c2ccncc2)c1
HT-29 [1]
  growth at 10 µM: 21.2%
CCRF-CEM; read-out: GI50
  GI50: 3.58 µM
CCRF-CEM; [9]
  CC50: > 100 µM
CCRF-CEM; read-out: TGI
  TGI: > 100 µM
CCRF-CEM; read-out: pGI50 (converted)
  GI50: 3.89 µM
CCRF-CEM; [10]
  CC50: > 100 µM
CCRF-CEM; read-out: pTGI (converted)
  TGI: > 100 µM
HOP-62; read-out: GI50
  GI50: 6.78 µM
HOP-62; [9]
  CC50: > 100 µM
HOP-62; read-out: TGI
  TGI: > 100 µM
HOP-62; read-out: pGI50 (converted)
  GI50: 63.1 µM
HOP-62; [10]
  CC50: > 100 µM
HOP-62; read-out: pTGI (converted)
  TGI: > 100 µM
NCI-H23; read-out: GI50
  GI50: 3.07 µM
NCI-H23; read-out: LC50
  LC50: > 100 µM
NCI-H23; read-out: TGI
  TGI: > 100 µM
NCI-H23; read-out: pGI50 (converted)
  GI50: 30.9 µM
NCI-H23; read-out: pLC50 (converted)
  LC50: > 100 µM
NCI-H23; read-out: pTGI (converted)
  TGI: > 100 µM
NCI-H460; read-out: GI50
  GI50: 4.79 µM
NCI-H460; [9]
  CC50: > 100 µM
NCI-H460; read-out: TGI
  TGI: > 100 µM
NCI-H460; read-out: pGI50 (converted)
  GI50: 4.79 µM
NCI-H460; [10]
  CC50: > 100 µM
NCI-H460; read-out: pTGI (converted)
  TGI: > 100 µM
SW-620; read-out: GI50
  GI50: 2.96 µM
SW-620; read-out: LC50
  LC50: > 100 µM
SW-620; read-out: TGI
  TGI: > 100 µM
SW-620; read-out: pGI50 (converted)
  GI50: 29.5 µM
SW-620; read-out: pLC50 (converted)
  LC50: > 100 µM
SW-620; read-out: pTGI (converted)
  TGI: > 100 µM
M14; read-out: GI50
  GI50: 7.93 µM
M14; [9]
  CC50: > 100 µM
M14; read-out: TGI
  TGI: > 100 µM
M14; read-out: pGI50 (converted)
  GI50: 7.94 µM
M14; [10]
  CC50: > 100 µM
M14; read-out: pTGI (converted)
  TGI: > 100 µM
SK-MEL-5; read-out: GI50
  GI50: 1.55 µM
SK-MEL-5; [9]
  CC50: > 100 µM
SK-MEL-5; read-out: TGI
  TGI: > 100 µM
SK-MEL-5; read-out: pGI50 (converted)
  GI50: 16.6 µM
SK-MEL-5; [10]
  CC50: > 100 µM
SK-MEL-5; read-out: pTGI (converted)
  TGI: > 100 µM
SF-539 [2]
  growth at 0.01 µM: 99%
SK-MEL-28
  growth at 0.01 µM: 97%
OVCAR-4 [3]
  growth at 0.01 µM: 99%
NCI-H522
  growth at 0.1 µM: 81%
COLO 205
  growth at 0.1 µM: 100%
HT-29 [4]
  growth at 0.1 µM: 93%
SF-539 [5]
  growth at 0.1 µM: 85%
Malme-3M
  growth at 0.1 µM: 85%
UACC-257
  growth at 0.1 µM: 97%
OVCAR-4 [6]
  growth at 0.1 µM: 103%
OVCAR-5
  growth at 0.1 µM: 78%
CAKI-1
  growth at 0.1 µM: 100%
PC-3
  growth at 0.1 µM: 95%
A549
  growth at 1 µM: 52%
HCC 2998 [7]
  growth at 1 µM: 100%
T47D
  growth at 1 µM: 93%
NCI-H322M
  growth at 100 µM: 48%
HCC 2998 [8]
  growth at 100 µM: -5%
U-251
  growth at 100 µM: 3%
DU-145
  growth at 100 µM: 54%
MDA-MB-231
  growth at 100 µM: -10%

## O=C(Nc1cccc(-n2cc(-c3ccncc3)c(-c3cc(O)cc(Cl)c3)n2)c1)Nc1ccc(Cl)c(Cl)c1
CCRF-CEM; read-out: GI50
  GI50: 2.12 µM
CCRF-CEM; [9]
  CC50: > 100 µM
CCRF-CEM; read-out: pGI50 (converted)
  GI50: 2.14 µM
CCRF-CEM; [10]
  CC50: > 100 µM
HOP-62; read-out: GI50
  GI50: 2.52 µM
HOP-62; [9]
  CC50: > 100 µM
HOP-62; read-out: TGI
  TGI: 85.1 µM
HOP-62; read-out: pGI50 (converted)
  GI50: 2.82 µM
HOP-62; [10]
  CC50: > 100 µM
HOP-62; read-out: pTGI (converted)
  TGI: 8.51 µM
NCI-H23; read-out: GI50
  GI50: 2.41 µM
NCI-H23; read-out: LC50
  LC50: > 100 µM
NCI-H23; read-out: TGI
  TGI: 62.9 µM
NCI-H23; read-out: pGI50 (converted)
  GI50: 2.4 µM
NCI-H23; read-out: pLC50 (converted)
  LC50: > 100 µM
NCI-H23; read-out: pTGI (converted)
  TGI: 5.01 µM
NCI-H460; read-out: GI50
  GI50: 2.18 µM
NCI-H460; [9]
  CC50: > 100 µM
NCI-H460; read-out: TGI
  TGI: 61.4 µM
NCI-H460; read-out: pGI50 (converted)
  GI50: 2.19 µM
NCI-H460; [10]
  CC50: > 100 µM
NCI-H460; read-out: pTGI (converted)
  TGI: 6.17 µM
SW-620; read-out: GI50
  GI50: 3.22 µM
SW-620; read-out: LC50
  LC50: > 100 µM
SW-620; read-out: TGI
  TGI: 99.7 µM
SW-620; read-out: pGI50 (converted)
  GI50: 3.24 µM
SW-620; read-out: pLC50 (converted)
  LC50: > 100 µM
SW-620; read-out: pTGI (converted)
  TGI: 10 µM
M14; read-out: GI50
  GI50: 1.44 µM
M14; [9]
  CC50: 7.44 µM
M14; read-out: TGI
  TGI: 32.8 µM
M14; read-out: pGI50 (converted)
  GI50: 1.45 µM
M14; [10]
  CC50: 7.41 µM
M14; read-out: pTGI (converted)
  TGI: 3.31 µM
SK-MEL-5; read-out: GI50
  GI50: 1.52 µM
SK-MEL-5; [9]
  CC50: 5.75 µM
SK-MEL-5; read-out: TGI
  TGI: 30.4 µM
SK-MEL-5; read-out: pGI50 (converted)
  GI50: 1.62 µM
SK-MEL-5; [10]
  CC50: 5.75 µM
SK-MEL-5; read-out: pTGI (converted)
  TGI: 3.02 µM
SF-539 [2]
  growth at 0.01 µM: 59%
SK-MEL-28
  growth at 0.01 µM: 108%
OVCAR-4 [3]
  growth at 0.01 µM: 108%
NCI-H522
  growth at 0.1 µM: 92%
COLO 205
  growth at 0.1 µM: 103%
HT-29 [4]
  growth at 0.1 µM: 97%
SF-539 [5]
  growth at 0.1 µM: 95%
Malme-3M
  growth at 0.1 µM: 84%
UACC-257
  growth at 0.1 µM: 91%
OVCAR-4 [6]
  growth at 0.1 µM: 95%
OVCAR-5
  growth at 0.1 µM: 90%
CAKI-1
  growth at 0.1 µM: 98%
PC-3
  growth at 0.1 µM: 90%
A549
  growth at 1 µM: 75%
HCC 2998 [7]
  growth at 1 µM: 96%
T47D
  growth at 1 µM: 96%
NCI-H322M
  growth at 100 µM: -24%
HCC 2998 [8]
  growth at 100 µM: -55%
U-251
  growth at 100 µM: -57%
DU-145
  growth at 100 µM: -31%
MDA-MB-231
  growth at 100 µM: -24%

Source: ChEMBL document CHEMBL4308841, “Synthesis, in vitro antiproliferative activity, and kinase inhibitory effects of pyrazole-containing diarylureas and diarylamides” (Eur J Med Chem, 2018)
